This is an account of results in patent US6929799B2, “D-alanine racemase mutants of mycobacteria and uses therefore” (priority 2001, dated 2005).

The test system of assay [1] is M. smegmatis TAM23 alr mutant. Put plainly: MIC by microplate twofold dilution, alr mutant strain. It counts as cell-based, Mycobacterium smegmatis. Conditions: for MIC: Mycolicibacterium smegmatis, TAM23ALRMUTANT
The subject of assay [2] is M. smegmatis wild type mc2155. Briefly: microbe, parasite or virus in culture. It counts as cell-based, Mycobacterium smegmatis. Conditions: for MIC: Mycolicibacterium smegmatis.
A further assay has as its system M. smegmatis TAM23. Briefly: Bactericidal action of DCS in broth culture, alr mutant strain. It counts as cell-based, Mycobacterium smegmatis.
Assay [3] has as its target M. smegmatis D-alanine racemase (AlrA) (Mycolicibacterium smegmatis, UniProt P94967). The conditions noted are these: Caceres et al., 1997; listed as DCS; cited from earlier work.
For another assay, the system named is M. smegmatis mc2155. It counts as cell-based, Mycobacterium smegmatis.
A further assay relates to D-alanine ligase. Conditions: David, 1969; Chacon, Ph.D. thesis; cited from earlier work.
The mark [4] stands for this setting: 48 h, read-out: Minimal Inhibitory Concentration (MIC), TAM23 alr mutant, inoculum grown with 50 mM D-alanine, Middlebrook 7H9, 48 h.
[5] abbreviates: 48 h, read-out: Minimal Inhibitory Concentration (MIC), TAM23 alr mutant, inoculum grown without D-alanine, Middlebrook 7H9, 48 h.
Setting [6] is: MC2155, 48 h, read-out: Minimal Inhibitory Concentration (MIC).

≈ marks a conversion by molar mass, not a printed value. Where two headings read alike, the source gives them in different places.

Sequence of M. smegmatis D-alanine racemase (AlrA) (P94967 whole entry): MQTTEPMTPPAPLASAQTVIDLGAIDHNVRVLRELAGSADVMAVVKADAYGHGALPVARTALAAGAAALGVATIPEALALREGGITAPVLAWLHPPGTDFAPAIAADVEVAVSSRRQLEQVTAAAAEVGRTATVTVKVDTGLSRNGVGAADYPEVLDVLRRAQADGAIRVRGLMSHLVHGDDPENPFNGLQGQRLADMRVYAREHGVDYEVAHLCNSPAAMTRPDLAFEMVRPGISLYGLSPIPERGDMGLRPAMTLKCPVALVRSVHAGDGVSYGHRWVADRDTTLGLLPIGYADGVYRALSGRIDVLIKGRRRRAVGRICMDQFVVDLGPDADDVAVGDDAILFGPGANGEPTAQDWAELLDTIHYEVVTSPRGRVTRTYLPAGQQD

In the case of `CO[C@H]1/C=C/O[C@@]2(C)Oc3c(C)c(O)c4c(c3C2=O)C2=NC3(CCN(CC(C)C)CC3)NC2=C(NC(=O)/C(C)=C\C=C\[C@H](C)[C@H](O)[C@@H](C)[C@@H](O)[C@@H](C)[C@H](OC(C)=O)[C@@H]1C)C4=O` [Rifabutin, rifabutin], the figures for the MIC in assay [1] (setting [4]), in assay [1] (setting [5]) and in assay [2] (setting [6]) were 1 µg/mL (≈ 1.18 µM), 2 µg/mL (≈ 2.36 µM) and 2 µg/mL (≈ 2.36 µM), respectively.

For `CC[C@@H](CO)NCCN[C@@H](CC)CO` [Ethambutol, ethambutol], the MIC in assay [1] (setting [4]), in assay [1] (setting [5]) and in assay [2] (setting [6]) was 3.13 µg/mL (≈ 15.3 µM) each time.

For `N[C@@H]1CON=C1O` [D-Cycloserine, D-cycloserine], the MIC in assay [1] (setting [4]) was 10.2 µg/mL (≈ 99.9 µM); in assay [1] (setting [5]), 2.56 µg/mL (≈ 25.1 µM); in assay [1] (TAM23, independent of prior growth conditions of the inocula, read-out: MIC with D-alanine added directly into the MIC test cultures), 1200 µg/mL (≈ 11800 µM); in assay [2] (setting [6]) it was 75 µg/mL (≈ 735 µM); in assay [2] (MC2155, read-out: MIC with D-alanine added directly into the MIC test cultures) it was 1200 µg/mL (≈ 11800 µM). Besides, the “MIC for TAM23, times lower than the MIC for the wild-type strain” value in assay [1] (inoculum grown with D-alanine, washed) is recorded as “about 7.5 times”. The “Sensitivity of TAM23 relative to wild type (MIC ratio)” value in assay [1] (inoculum grown without D-alanine) is reported as “about 30 fold”. For the same compound, the “Bactericidal effect (optical density and viable counts)” value in the assay with M. smegmatis TAM23 (DCS at 50 times the MIC (128 μg/ml), broth without D-alanine, up to 72 h) is on record as “rapid death by lysis”; with M. smegmatis mc2155, “rapid death by lysis”. The “Bactericidal drug concentration for mutant strain, fold lower than for wild-type strain” value in the assay with M. smegmatis TAM23 (absolute drug concentrations) turned out to be 30 fold. The “Inhibition of D-alanine racemase” value in assay [3] is “inhibited by DCS in a concentration-dependent manner”. Moreover, in assay [2], the “Minimal Inhibitory Concentration (MIC)” value amounted to 75.0 µg/mL. In addition, the “Inhibition of D-alanine ligase activity” value in the assay with D-alanine ligase is “inhibited”.

Take `NCC[C@H](O)C(=O)N[C@@H]1C[C@H](N)[C@@H](O[C@H]2O[C@H](CN)[C@@H](O)[C@H](O)[C@H]2O)[C@H](O)[C@H]1O[C@H]1O[C@H](CO)[C@@H](O)[C@H](N)[C@H]1O` [Amikacin, amikacin]: the MIC in assay [1] (setting [4]), in assay [1] (setting [5]) and in assay [2] (setting [6]) was 1.56 µg/mL (≈ 2.66 µM) throughout.
